Test results from the NIST ThermoML archive (doi:10.1021/je900874z).

Assay: xn = mol fraction of the nth substance listed
Conditions: 101 kPa, Liquid

Nc1ccccc1 [aniline] + CC(C)=O
Conditions	mass density [kg/m3]
293.15 K, x2 = 0.0522	1013.71
293.15 K, x2 = 0.1078	1004.97
293.15 K, x2 = 0.1567	996.941
293.15 K, x2 = 0.2074	988.429
293.15 K, x2 = 0.249	981.269
293.15 K, x2 = 0.3016	971.707
293.15 K, x2 = 0.3454	963.326
293.15 K, x2 = 0.3832	955.799
293.15 K, x2 = 0.4313	946.013
293.15 K, x2 = 0.4908	933.416
293.15 K, x2 = 0.5497	920.272
293.15 K, x2 = 0.583	912.529
293.15 K, x2 = 0.6446	897.535
293.15 K, x2 = 0.6911	885.684
293.15 K, x2 = 0.7465	870.629
293.15 K, x2 = 0.8046	854.022
293.15 K, x2 = 0.8497	840.545
293.15 K, x2 = 0.9045	823.238
293.15 K, x2 = 0.9475	809.118
298.15 K, x2 = 0.0569	1008.67
298.15 K, x2 = 0.1088	1000.44
298.15 K, x2 = 0.1539	993.118
298.15 K, x2 = 0.1978	985.694
298.15 K, x2 = 0.2484	976.895
298.15 K, x2 = 0.3039	966.77
298.15 K, x2 = 0.3505	957.976
298.15 K, x2 = 0.4114	945.773
298.15 K, x2 = 0.4585	935.933
298.15 K, x2 = 0.5035	926.122
298.15 K, x2 = 0.5501	915.531
298.15 K, x2 = 0.5922	905.703
298.15 K, x2 = 0.6499	891.425
298.15 K, x2 = 0.6993	878.643
298.15 K, x2 = 0.7522	864.125
298.15 K, x2 = 0.8082	848.052
298.15 K, x2 = 0.8533	834.272
298.15 K, x2 = 0.8951	821.048
298.15 K, x2 = 0.9545	801.258
303.15 K, x2 = 0.0515	1005.02
303.15 K, x2 = 0.1002	997.272
303.15 K, x2 = 0.1475	989.506
303.15 K, x2 = 0.1926	981.799
303.15 K, x2 = 0.2399	973.527
303.15 K, x2 = 0.3024	962.003
303.15 K, x2 = 0.3475	953.088
303.15 K, x2 = 0.3947	943.989
303.15 K, x2 = 0.4503	932.55
303.15 K, x2 = 0.4979	922.075
303.15 K, x2 = 0.5502	910.191
303.15 K, x2 = 0.6037	897.422
303.15 K, x2 = 0.6464	886.697
303.15 K, x2 = 0.6975	873.362
303.15 K, x2 = 0.7548	857.721
303.15 K, x2 = 0.8078	842.147
303.15 K, x2 = 0.8567	827.148
303.15 K, x2 = 0.9014	812.779
303.15 K, x2 = 0.9494	796.575
